Experimental data published in patent US20250129054A1 (Terran Biosciences Inc., priority 2022, published 2025).
Structures can show the parent of a compound that is named as a salt.

Assay: Serial tail vein bleed PK study in SD rats: methylone measured in plasma after IV or oral methylone or oral methylone prodrugs
Assay type: in vivo, Sprague Dawley rats
Details: 10 mg/kg, rat
Procedure: A pharmacokinetic (PK) study was performed in three male Sprague-Dawley (SD) rats following intravenous (IV) and oral (PO) administration of methylone at 1 mg/kg (IV) and 10 mg/kg (PO) respectively, or test compounds (prodrugs of methylone) at 10 mg/kg (PO). Parent compound (methylone) was measured in plasma.
Samples were sent for method optimization and measurement of parent compound (methylone) via unique calibration lines and following acceptance QC's. Dose formulation concentrations were also measured, and PK parameters were determined (Cmax (ng/mL), Tmax (hr), Cl (ml/min/kg), Vdss (L/kg), t½(hr), AUC0-t (ng/mL*hr), AUC0-inf (ng/mL*hr), MIRT (hr), Bioavailability ([…]) where warranted) using WinNon Lin software. Data (including bioanalytical results and assay performance) were reported in a tabulated format.
Formulation for PO Administration: For PO dosing, the prodrug was formulated in 10% DMSO/20% PEG400/70% water to a concentration of 2 mg free metabolite material/mL. This provided a dose of 10 mg free metabolite/kg when the prodrug was administered PO in 5 mL/kg dosing volumes.
Formulation for IV administration: For IV dosing, rac-methylone was formulated as solution in saline to a concentration of 0.5 mg free metabolite material/mL. This provided a dose of 1 mg free metabolite/kg when administered IV in 2 mL/kg dosing volumes.
The pharmacokinetic properties of the synthesized methylone prodrugs after oral administration in a rat model were assessed. The concentration of methylone was measured in each rat at various sampling timepoints after IV or oral administration of rac-methylone or the synthesized methylone prodrugs to rats.
Dose formulations were made at equivalent concentrations of active compound (methylone) adjusted for molecular weight of the compounds. The synthesized methylone prodrugs or analogs were dosed at 10 mg/kg oral (PO) nominal dose. Nominal doses were used in PK parameter determinations. The parent compound (methylone) was dosed at 1 mg/kg intravenous (IV) and 10 mg/kg (PO).

[1] = 0.500 h after oral dosing of the prodrug, individual animals
[2] = 0.500 h after oral dosing of the prodrug, mean
[3] = 1.00 h after oral dosing of the prodrug, individual animals
[4] = 1.00 h after oral dosing of the prodrug, mean
[5] = 2.00 h after oral dosing of the prodrug, individual animals
[6] = 2.00 h after oral dosing of the prodrug, mean
[7] = 4.00 h after oral dosing of the prodrug, individual animals
[8] = 4.00 h after oral dosing of the prodrug, mean
[9] = 7.00 h after oral dosing of the prodrug, individual animals
[10] = 7.00 h after oral dosing of the prodrug, mean
[11] = 24.0 h after oral dosing of the prodrug, individual animals
[12] = 24.0 h after oral dosing of the prodrug, mean

| Compound | Plasma Concentrations of metabolite methylone [1] | Plasma Concentrations of metabolite methylone [2] | Plasma Concentrations of metabolite methylone [3] | Plasma Concentrations of metabolite methylone [4] | Plasma Concentrations of metabolite methylone [5] | Plasma Concentrations of metabolite methylone [6] | Plasma Concentrations of metabolite methylone [7] | Plasma Concentrations of metabolite methylone [8] | Plasma Concentrations of metabolite methylone [9] | Plasma Concentrations of metabolite methylone [10] | Plasma Concentrations of metabolite methylone [11] | Plasma Concentrations of metabolite methylone [12] |
| --- | --- | --- | --- | --- | --- | --- | --- | --- | --- | --- | --- | --- |
| CC(C(=O)c1ccc2c(c1)OCO2)N(C)C(=O)CCCC(=O)OC(C)(C)C (stereo not drawn) [Compound 3C, tert-Butyl 4-{[2-(2H-1,3-benzodioxol-5-yl)-1-methyl-2-oxo-ethyl]-N-methylcarbamoyl}butyrate] | BLQ (Below Lower Limit of Quantification (0.5 ng/mL)) | BLQ (Below Lower Limit of Quantification (0.5 ng/mL)) | BLQ (Below Lower Limit of Quantification (0.5 ng/mL)) | BLQ (Below Lower Limit of Quantification (0.5 ng/mL)) | BLQ (Below Lower Limit of Quantification (0.5 ng/mL)) | BLQ (Below Lower Limit of Quantification (0.5 ng/mL)) | BLQ (Below Lower Limit of Quantification (0.5 ng/mL)) | BLQ (Below Lower Limit of Quantification (0.5 ng/mL)) | BLQ (Below Lower Limit of Quantification (0.5 ng/mL)) | BLQ (Below Lower Limit of Quantification (0.5 ng/mL)) | BLQ (Below Lower Limit of Quantification (0.5 ng/mL)) | BLQ (Below Lower Limit of Quantification (0.5 ng/mL)) |
| CC1C(c2ccc3c(c2)OCO3)=N[C@@H](CCCCN)C(=O)N1C (stereo partly drawn) [Compound 4A, dihydrochloride] | BLQ (Below Lower Limit of Quantification (0.5 ng/mL)) | BLQ (Below Lower Limit of Quantification (0.5 ng/mL)) | BLQ (Below Lower Limit of Quantification (0.5 ng/mL)) | BLQ (Below Lower Limit of Quantification (0.5 ng/mL)) | BLQ (Below Lower Limit of Quantification (0.5 ng/mL)) | BLQ (Below Lower Limit of Quantification (0.5 ng/mL)) | BLQ (Below Lower Limit of Quantification (0.5 ng/mL)) | BLQ (Below Lower Limit of Quantification (0.5 ng/mL)) | BLQ (Below Lower Limit of Quantification (0.5 ng/mL)) | BLQ (Below Lower Limit of Quantification (0.5 ng/mL)) | BLQ (Below Lower Limit of Quantification (0.5 ng/mL)) | BLQ (Below Lower Limit of Quantification (0.5 ng/mL)) |
| CC(C)COC(=O)N(C)C(C)C(=O)c1ccc2c(c1)OCO2 (stereo not drawn) [Compound 1D, iso-Butyl N-[2-(1,3-benzodioxol-5-yl)-1-methyl-2-oxo-ethyl]-N-methyl-carbamate] | BLQ (Below Lower Limit of Quantification (0.5 ng/mL)) | BLQ (Below Lower Limit of Quantification (0.5 ng/mL)) | BLQ (Below Lower Limit of Quantification (0.5 ng/mL)) | BLQ (Below Lower Limit of Quantification (0.5 ng/mL)) | BLQ (Below Lower Limit of Quantification (0.5 ng/mL)) | BLQ (Below Lower Limit of Quantification (0.5 ng/mL)) | BLQ (Below Lower Limit of Quantification (0.5 ng/mL)) | BLQ (Below Lower Limit of Quantification (0.5 ng/mL)) | BLQ (Below Lower Limit of Quantification (0.5 ng/mL)) | BLQ (Below Lower Limit of Quantification (0.5 ng/mL)) | BLQ (Below Lower Limit of Quantification (0.5 ng/mL)) | BLQ (Below Lower Limit of Quantification (0.5 ng/mL)) |
| COCCOC(=O)N(C)C(C)C(=O)c1ccc2c(c1)OCO2 (stereo not drawn) [PE, 2-Methoxyethyl N-[2-(1,3-benzodioxol-5-yl)-1-methyl-2-oxo-ethyl]-N-methyl-carbamate] | BLQ (Below Lower Limit of Quantification (0.5 ng/mL)) | BLQ (Below Lower Limit of Quantification (0.5 ng/mL)) | BLQ (Below Lower Limit of Quantification (0.5 ng/mL)) | BLQ (Below Lower Limit of Quantification (0.5 ng/mL)) | BLQ (Below Lower Limit of Quantification (0.5 ng/mL)) | BLQ (Below Lower Limit of Quantification (0.5 ng/mL)) | BLQ (Below Lower Limit of Quantification (0.5 ng/mL)) | BLQ (Below Lower Limit of Quantification (0.5 ng/mL)) | BLQ (Below Lower Limit of Quantification (0.5 ng/mL)) | BLQ (Below Lower Limit of Quantification (0.5 ng/mL)) | BLQ (Below Lower Limit of Quantification (0.5 ng/mL)) | BLQ (Below Lower Limit of Quantification (0.5 ng/mL)) |
| CC(C(=O)c1ccc2c(c1)OCO2)N(C)C(=O)N1CCC(N2CCCCC2)CC1 (stereo not drawn) [Compound 9A, N-[2-(1,3-Benzodioxol-5-yl)-1-methyl-2-oxo-ethyl]-N-methyl-4-(1-piperidyl)piperidine-1-carboxamide] | BLQ (Below Lower Limit of Quantification (0.5 ng/mL)) | BLQ (Below Lower Limit of Quantification (0.5 ng/mL)) | BLQ (Below Lower Limit of Quantification (0.5 ng/mL)) | BLQ (Below Lower Limit of Quantification (0.5 ng/mL)) | BLQ (Below Lower Limit of Quantification (0.5 ng/mL)) | BLQ (Below Lower Limit of Quantification (0.5 ng/mL)) | BLQ (Below Lower Limit of Quantification (0.5 ng/mL)) | BLQ (Below Lower Limit of Quantification (0.5 ng/mL)) | BLQ (Below Lower Limit of Quantification (0.5 ng/mL)) | BLQ (Below Lower Limit of Quantification (0.5 ng/mL)) | BLQ (Below Lower Limit of Quantification (0.5 ng/mL)) | BLQ (Below Lower Limit of Quantification (0.5 ng/mL)) |
| CC(C(=O)c1ccc2c(c1)OCO2)N(C)C(=O)C(F)(F)F (stereo not drawn) [Compound 2B, N-[2-(1,3-Benzodioxol-5-yl)-1-methyl-2-oxo-ethyl]-2,2,2-trifluoro-N-methyl-acetamide] | BLQ (Below Lower Limit of Quantification (0.5 ng/mL)) | BLQ (Below Lower Limit of Quantification (0.5 ng/mL)) | BLQ (Below Lower Limit of Quantification (0.5 ng/mL)) | BLQ (Below Lower Limit of Quantification (0.5 ng/mL)) | BLQ (Below Lower Limit of Quantification (0.5 ng/mL)) | BLQ (Below Lower Limit of Quantification (0.5 ng/mL)) | BLQ (Below Lower Limit of Quantification (0.5 ng/mL)) | BLQ (Below Lower Limit of Quantification (0.5 ng/mL)) | BLQ (Below Lower Limit of Quantification (0.5 ng/mL)) | BLQ (Below Lower Limit of Quantification (0.5 ng/mL)) | BLQ (Below Lower Limit of Quantification (0.5 ng/mL)) | BLQ (Below Lower Limit of Quantification (0.5 ng/mL)) |
